Measurements reported in ChEMBL document CHEMBL5107949, “Design, synthesis, and antibacterial activity of N-(trifluoromethyl)phenyl substituted pyrazole derivatives” (RSC Med Chem, 2021).
Values after ≈ are worked out from the molar mass of the structure shown.

Legend:
Staphylococcus aureus [1] = test: Antibacterial activity against antibiotic susceptible Staphylococcus aureus ATCC 25923 assessed as inhibition of bacterial growth by CLSI protocol based broth microdilution method; assay type: functional
Staphylococcus aureus [2] = test: Antibacterial activity against antibiotic resistant Staphylococcus aureus ATCC 33591 assessed as inhibition of bacterial growth by CLSI protocol based broth microdilution method; assay type: functional
Staphylococcus aureus [3] = test: Antibacterial activity against antibiotic resistant Staphylococcus aureus ATCC 33592 assessed as inhibition of bacterial growth by CLSI protocol based broth microdilution method; assay type: functional
Staphylococcus aureus [4] = test: Antibacterial activity against antibiotic resistant Staphylococcus aureus BAA-2312 assessed as inhibition of bacterial growth by CLSI protocol based broth microdilution method; assay type: functional
Staphylococcus aureus [5] = test: Antibacterial activity against antibiotic resistant Staphylococcus aureus ATCC 700699 assessed as inhibition of bacterial growth by CLSI protocol based broth microdilution method; assay type: functional
[6] = test system: Staphylococcus epidermidis; test: Antibacterial activity against antibiotic resistant Staphylococcus epidermidis ATCC 700296 assessed as inhibition of bacterial growth by CLSI protocol based broth microdilution method; assay type: functional
Bacillus subtilis = test: Antibacterial activity against antibiotic resistant Bacillus subtilis ATCC 6623 assessed as inhibition of bacterial growth by CLSI protocol based broth microdilution method; assay type: functional
Enterococcus faecalis [7] = test: Antibacterial activity against antibiotic susceptible Enterococcus faecalis ATCC 29212 assessed as inhibition of bacterial growth by CLSI protocol based broth microdilution method; assay type: functional
Enterococcus faecium [8] = test: Antibacterial activity against vancomycin resistant Enterococcus faecium ATCC 700221 assessed as inhibition of bacterial growth by CLSI protocol based broth microdilution method; assay type: functional
[9] = Cytotoxicity against human HEK293 cells reduction in cell viability incubated for 24 hrs by resazurin cell viability assay; assay type: toxicity, cell-based
Enterococcus faecalis [10] = test: Antibacterial activity against Enterococcus faecalis clinical isolate 1088051 assessed as inhibition of bacterial growth by CLSI protocol based broth microdilution method; assay type: functional
Enterococcus faecalis [11] = test: Antibacterial activity against Enterococcus faecalis clinical isolate 1091563 assessed as inhibition of bacterial growth by CLSI protocol based broth microdilution method; assay type: functional
Enterococcus faecalis [12] = test: Antibacterial activity against Enterococcus faecalis clinical isolate 1091720 assessed as inhibition of bacterial growth by CLSI protocol based broth microdilution method; assay type: functional
Enterococcus faecalis [13] = test: Antibacterial activity against Enterococcus faecalis clinical isolate 1094112 assessed as inhibition of bacterial growth by CLSI protocol based broth microdilution method; assay type: functional
Enterococcus faecalis [14] = test: Antibacterial activity against Enterococcus faecalis clinical isolate 1100440 assessed as inhibition of bacterial growth by CLSI protocol based broth microdilution method; assay type: functional
Enterococcus faecium [15] = test: Antibacterial activity against Enterococcus faecium clinical isolate 1088168 assessed as inhibition of bacterial growth by CLSI protocol based broth microdilution method; assay type: functional
Enterococcus faecium [16] = test: Antibacterial activity against Enterococcus faecium clinical isolate 1088228 assessed as inhibition of bacterial growth by CLSI protocol based broth microdilution method; assay type: functional
Enterococcus faecium [17] = test: Antibacterial activity against Enterococcus faecium clinical isolate 1088925 assessed as inhibition of bacterial growth by CLSI protocol based broth microdilution method; assay type: functional
Enterococcus faecium [18] = test: Antibacterial activity against Enterococcus faecium clinical isolate 1089544 assessed as inhibition of bacterial growth by CLSI protocol based broth microdilution method; assay type: functional
Enterococcus faecium [19] = test: Antibacterial activity against Enterococcus faecium clinical isolate 1091282 assessed as inhibition of bacterial growth by CLSI protocol based broth microdilution method; assay type: functional
Staphylococcus aureus [20] = test: Antibacterial activity against Staphylococcus aureus clinical isolate 1088060 assessed as inhibition of bacterial growth by CLSI protocol based broth microdilution method; assay type: functional
Staphylococcus aureus [21] = test: Antibacterial activity against Staphylococcus aureus clinical isolate 1088105 assessed as inhibition of bacterial growth by CLSI protocol based broth microdilution method; assay type: functional
Staphylococcus aureus [22] = test: Antibacterial activity against Staphylococcus aureus clinical isolate 1088626 assessed as inhibition of bacterial growth by CLSI protocol based broth microdilution method; assay type: functional
Staphylococcus aureus [23] = test: Antibacterial activity against Staphylococcus aureus clinical isolate 1088064 assessed as inhibition of bacterial growth by CLSI protocol based broth microdilution method; assay type: functional
Staphylococcus aureus [24] = test: Antibacterial activity against Staphylococcus aureus clinical isolate 1088610 assessed as inhibition of bacterial growth by CLSI protocol based broth microdilution method; assay type: functional
Staphylococcus aureus [25] = test: Antibacterial activity against Staphylococcus aureus clinical isolate 1088888 assessed as inhibition of bacterial growth by CLSI protocol based broth microdilution method; assay type: functional
Staphylococcus aureus [26] = test: Antibacterial activity against Staphylococcus aureus clinical isolate 1089106 assessed as inhibition of bacterial growth by CLSI protocol based broth microdilution method; assay type: functional

| SMILES | MIC (Staphylococcus aureus [1]) [µg/mL] | MIC (Staphylococcus aureus [2]) [µg/mL] | MIC (Staphylococcus aureus [3]) [µg/mL] | MIC (Staphylococcus aureus [4]) [µg/mL] | MIC (Staphylococcus aureus [5]) [µg/mL] | MIC [6] [µg/mL] | MIC (Bacillus subtilis) [µg/mL] | MIC (Enterococcus faecalis [7]) [µg/mL] | MIC (Enterococcus faecium [8]) [µg/mL] | further results |
| --- | --- | --- | --- | --- | --- | --- | --- | --- | --- | --- |
| Cc1ccc(NCc2cn(-c3ccc(C(F)(F)F)cc3)nc2-c2ccc(C(=O)O)cc2)cc1Cl | 3.12 (≈ 6.42 µM) | 6.25 (≈ 12.9 µM) | 3.12 (≈ 6.42 µM) | 3.12 (≈ 6.42 µM) | 1.56 (≈ 3.21 µM) | 6.25 (≈ 12.9 µM) | 1.56 (≈ 3.21 µM) | 6.25 (≈ 12.9 µM) | 3.12 (≈ 6.42 µM) | IC50 at 24 h [9]: > 12 µg/mL |
| CN1CCN(c2ccc(NCc3cn(-c4ccc(C(F)(F)F)cc4)nc3-c3ccc(C(=O)O)cc3)cc2C(F)(F)F)CC1 | 25 (≈ 41.4 µM) | 50 (≈ 82.8 µM) | 12.5 (≈ 20.7 µM) | 25 (≈ 41.4 µM) | 12.5 (≈ 20.7 µM) |  | 25 (≈ 41.4 µM) | 25 (≈ 41.4 µM) | 25 (≈ 41.4 µM) |  |
| O=C(O)c1ccc(-c2nn(-c3ccc(C(F)(F)F)cc3)cc2CNc2ccc(F)c(Cl)c2)cc1 | 3.12 (≈ 6.37 µM) | 12.5 (≈ 25.5 µM) | 3.12 (≈ 6.37 µM) | 6.25 (≈ 12.8 µM) | 3.12 (≈ 6.37 µM) | 12.5 (≈ 25.5 µM) | 3.12 (≈ 6.37 µM) | 12.5 (≈ 25.5 µM) | 6.25 (≈ 12.8 µM) |  |
| O=C(O)c1ccc(-c2nn(-c3ccc(C(F)(F)F)cc3)cc2CNc2cccc(Cl)c2F)cc1 | 3.12 (≈ 6.37 µM) | 6.25 (≈ 12.8 µM) | 3.12 (≈ 6.37 µM) | 6.25 (≈ 12.8 µM) | 3.12 (≈ 6.37 µM) | 12.5 (≈ 25.5 µM) | 1.56 (≈ 3.18 µM) | 12.5 (≈ 25.5 µM) | 6.25 (≈ 12.8 µM) |  |
| COc1ccc(NCc2cn(-c3ccc(C(F)(F)F)cc3)nc2-c2ccc(C(=O)O)cc2)cc1C(F)(F)F | 12.5 (≈ 23.3 µM) | 25 (≈ 46.7 µM) | 12.5 (≈ 23.3 µM) | 12.5 (≈ 23.3 µM) | 6.25 (≈ 11.7 µM) | 25 (≈ 46.7 µM) | 6.25 (≈ 11.7 µM) | 25 (≈ 46.7 µM) | 12.5 (≈ 23.3 µM) |  |
| O=C(O)c1ccc(-c2nn(-c3ccc(C(F)(F)F)cc3)cc2CNc2cccc(F)c2)cc1 | 25 (≈ 54.9 µM) | 25 (≈ 54.9 µM) | 25 (≈ 54.9 µM) | 25 (≈ 54.9 µM) | 12.5 (≈ 27.4 µM) | 25 (≈ 54.9 µM) | 12.5 (≈ 27.4 µM) | 25 (≈ 54.9 µM) | 12.5 (≈ 27.4 µM) |  |
| CC(C)c1ccc(NCc2cn(-c3ccc(C(F)(F)F)cc3)nc2-c2ccc(C(=O)O)cc2)cc1 | 3.12 (≈ 6.51 µM) | 12.5 (≈ 26.1 µM) | 3.12 (≈ 6.51 µM) | 6.25 (≈ 13 µM) | 3.12 (≈ 6.51 µM) | 12.5 (≈ 26.1 µM) | 3.12 (≈ 6.51 µM) | 6.25 (≈ 13 µM) | 3.12 (≈ 6.51 µM) |  |
| O=C(O)c1ccc(-c2nn(-c3ccc(C(F)(F)F)cc3)cc2CNc2ccc(F)c(F)c2)cc1 | 12.5 (≈ 26.4 µM) | 25 (≈ 52.8 µM) | 6.25 (≈ 13.2 µM) | 25 (≈ 52.8 µM) | 6.25 (≈ 13.2 µM) | 25 (≈ 52.8 µM) | 12.5 (≈ 26.4 µM) | 25 (≈ 52.8 µM) | 12.5 (≈ 26.4 µM) |  |
| Cc1onc(-c2ccccc2)c1C(=O)N[C@@H]1C(=O)N2[C@@H]1SC(C)(C)[C@@H]2C(=O)O [OXACILLIN] |  |  |  |  |  |  |  |  |  | MIC (Enterococcus faecalis [10]): 64 µg/mL (≈ 159 µM); MIC (Enterococcus faecalis [11]): 64 µg/mL (≈ 159 µM); MIC (Enterococcus faecalis [12]): 64 µg/mL (≈ 159 µM); MIC (Enterococcus faecalis [13]): > 64 µg/mL; MIC (Enterococcus faecalis [14]): > 64 µg/mL; MIC (Enterococcus faecium [15]): > 64 µg/mL; MIC (Enterococcus faecium [16]): > 64 µg/mL; MIC (Enterococcus faecium [17]): > 64 µg/mL; MIC (Enterococcus faecium [18]): > 64 µg/mL; MIC (Enterococcus faecium [19]): > 64 µg/mL; MIC (Staphylococcus aureus [20]): 0.5 µg/mL (≈ 1.25 µM); MIC (Staphylococcus aureus [21]): 0.25 µg/mL (≈ 0.623 µM); MIC (Staphylococcus aureus [22]): 0.25 µg/mL (≈ 0.623 µM); MIC (Staphylococcus aureus [23]): 64 µg/mL (≈ 159 µM); MIC (Staphylococcus aureus [24]): 64 µg/mL (≈ 159 µM); MIC (Staphylococcus aureus [25]): > 64 µg/mL; MIC (Staphylococcus aureus [26]): 64 µg/mL (≈ 159 µM) |
| C[C@@H](O)[C@H]1C(=O)N2C(C(=O)O)=C(S[C@@H]3CN[C@H](C(=O)N(C)C)C3)[C@H](C)[C@H]12 [MEROPENEM] |  |  |  |  |  |  |  |  |  | MIC (Enterococcus faecalis [10]): 2 µg/mL (≈ 5.22 µM); MIC (Enterococcus faecalis [11]): 2 µg/mL (≈ 5.22 µM); MIC (Enterococcus faecalis [12]): 8 µg/mL (≈ 20.9 µM); MIC (Enterococcus faecalis [13]): 8 µg/mL (≈ 20.9 µM); MIC (Enterococcus faecalis [14]): 4 µg/mL (≈ 10.4 µM); MIC (Enterococcus faecium [15]): > 128 µg/mL; MIC (Enterococcus faecium [16]): > 128 µg/mL; MIC (Enterococcus faecium [17]): > 128 µg/mL; MIC (Enterococcus faecium [18]): > 128 µg/mL; MIC (Enterococcus faecium [19]): > 128 µg/mL; MIC (Staphylococcus aureus [20]): 0.06 µg/mL (≈ 0.156 µM); MIC (Staphylococcus aureus [21]): 0.12 µg/mL (≈ 0.313 µM); MIC (Staphylococcus aureus [22]): 0.06 µg/mL (≈ 0.156 µM); MIC (Staphylococcus aureus [23]): 4 µg/mL (≈ 10.4 µM); MIC (Staphylococcus aureus [24]): 4 µg/mL (≈ 10.4 µM); MIC (Staphylococcus aureus [25]): 8 µg/mL (≈ 20.9 µM); MIC (Staphylococcus aureus [26]): 2 µg/mL (≈ 5.22 µM) |
| O=C(O)c1ccc(-c2nn(-c3ccc(C(F)(F)F)cc3)cc2CNc2ccc([N+](=O)[O-])cc2)cc1 | 25 (≈ 51.8 µM) | 25 (≈ 51.8 µM) | 12.5 (≈ 25.9 µM) | 25 (≈ 51.8 µM) | 12.5 (≈ 25.9 µM) | 25 (≈ 51.8 µM) | 12.5 (≈ 25.9 µM) | 25 (≈ 51.8 µM) | 25 (≈ 51.8 µM) |  |
